# How the values were obtained:
# Type in all cases: in vivo
# [1] = system: beet; assay: Test Example 4: foliar treatment, effect on crop; f: beet; conditions: treatment dosage 315 g/ha
# Procedure: (§1) Testing of Weedkilling Efficacy by Foliar Treatment
# (§2) Sterilized diluvial soil was introduced into 21 cm long, 13 cm wide, 7 cm deep plastic boxes, and seeds of crabgrass, green foxtail, barnyard grass, wild oat, black-grass, Italian ryegrass, common wind-grass, Indian mallow, redroot pigweed, fig-leafed goosefoot, chickweed, catchweed, birds-eye speedwell, corn, soybean, rice, wheat, beet and rapeseed were each spot-sown, and covered with about 1.5 cm of soil, then the plants were grown in a greenhouse at 25 to 30° C.
# (§3) After they had grown for 14 days, emulsions of compounds of the present invention prepared according to compounding example 2 were diluted with water to give the specified dosages, and applied uniformly onto the stem and leaf parts with a small sprayer. 3 weeks after the pesticide treatment the effect on each type of plant was investigated on the basis of the assessment criteria of test example 1.
# (§4) A: barnyard grass, B: bulrush, C: oval-leafed pondweed, D: crabgrass, E: green foxtail, F: barnyard grass, G: wild oat, H: black-grass, I: Italian ryegrass, J: common wind-grass, K: Indian mallow, L: redroot pigweed, M: fig-leafed goosefoot, N: chickweed, O: catchweed, p: birds-eye speedwell, a: transplanted rice, b: directly sown rice, c: corn, d: soybean, e: wheat, f: beet, g: rapeseed
# (§5) Further, pesticide dosage (g/ha) indicates the concentration regulated such that treatment was with only the stated number of grams (g), when calculated per hectare (ha).
# [2] = system: wheat; assay: Test Example 4: foliar treatment, effect on crop; e: wheat; conditions: treatment dosage 315 g/ha
# Procedure: as §1, §2, §3, §4, §5
# [3] = system: birds-eye speedwell; assay: Test Example 3: weedkilling efficacy through soil treatment; p: birds-eye speedwell; conditions: treatment dosage 315 g/ha
# Method in brief: (§6)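 Crop and weed responses were judged three weeks after a uniform surface spray of the water-diluted emulsion at the given g/ha rate. Seeds sat beneath about 1.5 cm of sterilized diluvial soil, and boxes stood in a greenhouse at 25 to 30° C.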
# [4] = system: green foxtail; assay: Test Example 4: weedkilling efficacy by foliar treatment; E: green foxtail; conditions: treatment dosage 315 g/ha
# Procedure: as §1, §2, §3, §4, §5
# [5] = system: corn; assay: Test Example 4: foliar treatment, effect on crop; c: corn; conditions: treatment dosage 315 g/ha
# Procedure: as §1, §2, §3, §4, §5
# [6] = system: oval-leafed pondweed; assay: Test Example 1: weedkilling efficacy, preemergent weed treatment in the submerged state; C: oval-leafed pondweed; conditions: treatment dosage 252 g/ha
# Method in brief: (§7)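 Pre-emergence application onto floodwater (4 cm, alluvial soil) on the day of sowing, dose expressed as g/ha from diluted emulsion formulation. Weeds sown with 2.5-leaf transplanted rice as crop; plants held at 25–30 °C in greenhouse and scored against assessment criteria after 3 weeks.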
# [7] = system: transplanted rice; assay: Test Example 1: preemergent weed treatment in the submerged state, effect on crop; a: transplanted rice; conditions: treatment dosage 252 g/ha
# Method in brief: as §7
# [8] = system: black-grass; assay: Test Example 4: weedkilling efficacy by foliar treatment; H: black-grass; conditions: treatment dosage 315 g/ha
# Procedure: as §1, §2, §3, §4, §5
# [9] = system: green foxtail; assay: Test Example 3: weedkilling efficacy through soil treatment; E: green foxtail; conditions: treatment dosage 315 g/ha
# Method in brief: as §6
# [10] = system: fig-leafed goosefoot; assay: Test Example 4: weedkilling efficacy by foliar treatment; M: fig-leafed goosefoot; conditions: treatment dosage 315 g/ha
# Procedure: as §1, §2, §3, §4, §5
# [11] = system: Indian mallow; assay: Test Example 4: weedkilling efficacy by foliar treatment; K: Indian mallow; conditions: treatment dosage 315 g/ha
# Procedure: as §1, §2, §3, §4, §5
# [12] = system: birds-eye speedwell; assay: Test Example 4: weedkilling efficacy by foliar treatment; p: birds-eye speedwell; conditions: treatment dosage 315 g/ha
# Procedure: as §1, §2, §3, §4, §5
# [13] = system: Indian mallow; assay: Test Example 3: weedkilling efficacy through soil treatment; K: Indian mallow; conditions: treatment dosage 315 g/ha
# Method in brief: as §6
# [14] = system: soybean; assay: Test Example 4: foliar treatment, effect on crop; d: soybean; conditions: treatment dosage 315 g/ha
# Procedure: as §1, §2, §3, §4, §5
# [15] = system: beet; assay: Test Example 3: soil treatment, effect on crop; f: beet; conditions: treatment dosage 315 g/ha
# Method in brief: as §6
# [16] = system: catchweed; assay: Test Example 4: weedkilling efficacy by foliar treatment; O: catchweed; conditions: treatment dosage 315 g/ha
# Procedure: as §1, §2, §3, §4, §5
# [17] = system: barnyard grass; assay: Test Example 2: weedkilling efficacy, growth period weed treatment in the submerged state; A: barnyard grass; conditions: treatment dosage 252 g/ha
# Method in brief: (§8)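 Weeds treated at the 1-2 leaf stage by application of diluted emulsion onto floodwater (4 cm depth, alluvial soil) at specified g/ha. Grown in greenhouse at 25 to 30° C; herbicidal effect rated three weeks after treatment.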
# [18] = system: chickweed; assay: Test Example 4: weedkilling efficacy by foliar treatment; N: chickweed; conditions: treatment dosage 315 g/ha
# Procedure: as §1, §2, §3, §4, §5
# [19] = system: redroot pigweed; assay: Test Example 3: weedkilling efficacy through soil treatment; L: redroot pigweed; conditions: treatment dosage 315 g/ha
# Method in brief: as §6
# [20] = system: wheat; assay: Test Example 3: soil treatment, effect on crop; e: wheat; conditions: treatment dosage 315 g/ha
# Method in brief: as §6
# [21] = system: crabgrass; assay: Test Example 4: weedkilling efficacy by foliar treatment; D: crabgrass; conditions: treatment dosage 315 g/ha
# Procedure: as §1, §2, §3, §4, §5
# [22] = system: black-grass; assay: Test Example 3: weedkilling efficacy through soil treatment; H: black-grass; conditions: treatment dosage 315 g/ha
# Method in brief: as §6
# [23] = system: redroot pigweed; assay: Test Example 4: weedkilling efficacy by foliar treatment; L: redroot pigweed; conditions: treatment dosage 315 g/ha
# Procedure: as §1, §2, §3, §4, §5
# [24] = system: oval-leafed pondweed; assay: Test Example 2: weedkilling efficacy, growth period weed treatment in the submerged state; C: oval-leafed pondweed; conditions: treatment dosage 252 g/ha
# Method in brief: as §8
# [25] = system: crabgrass; assay: Test Example 3: weedkilling efficacy through soil treatment; D: crabgrass; conditions: treatment dosage 315 g/ha
# Method in brief: as §6
# [26] = system: barnyard grass; assay: Test Example 1: weedkilling efficacy, preemergent weed treatment in the submerged state; A: barnyard grass; conditions: treatment dosage 252 g/ha
# Method in brief: as §7
# [27] = system: corn; assay: Test Example 3: soil treatment, effect on crop; c: corn; conditions: treatment dosage 315 g/ha
# Method in brief: as §6
# [28] = system: directly sown rice; assay: Test Example 4: foliar treatment, effect on crop; b: directly sown rice; conditions: treatment dosage 315 g/ha
# Procedure: as §1, §2, §3, §4, §5
# [29] = system: Italian ryegrass; assay: Test Example 3: weedkilling efficacy through soil treatment; I: Italian ryegrass; conditions: treatment dosage 315 g/ha
# Method in brief: as §6
# [30] = system: directly sown rice; assay: Test Example 3: soil treatment, effect on crop; b: directly sown rice; conditions: treatment dosage 315 g/ha
# Method in brief: as §6
# [31] = system: bulrush; assay: Test Example 2: weedkilling efficacy, growth period weed treatment in the submerged state; B: bulrush; conditions: treatment dosage 252 g/ha
# Method in brief: as §8
# [32] = system: bulrush; assay: Test Example 1: weedkilling efficacy, preemergent weed treatment in the submerged state; B: bulrush; conditions: treatment dosage 252 g/ha
# Method in brief: as §7
# [33] = system: chickweed; assay: Test Example 3: weedkilling efficacy through soil treatment; N: chickweed; conditions: treatment dosage 315 g/ha
# Method in brief: as §6
# [34] = system: soybean; assay: Test Example 3: soil treatment, effect on crop; d: soybean; conditions: treatment dosage 315 g/ha
# Method in brief: as §6
# [35] = system: Italian ryegrass; assay: Test Example 4: weedkilling efficacy by foliar treatment; I: Italian ryegrass; conditions: treatment dosage 315 g/ha
# Procedure: as §1, §2, §3, §4, §5
structure (smiles),measurement,setting,value
COc1nsc(NC(=O)C(C)(C)N2COC(C)=C(c3ccccc3)C2=O)n1 [B-1-15],f (beet) effect on crop grade,[1],"4 (weed kill ratio 70% or more, less than 90%)"
same,e (wheat) effect on crop grade,[2],"3 (weed kill ratio 40% or more, less than 70%)"
same,P (birds-eye speedwell) weedkilling efficacy grade,[3],"5 (weed kill ratio 90% or more, (practically complete withering))"
same,E (green foxtail) weedkilling efficacy grade,[4],"5 (weed kill ratio 90% or more, (practically complete withering))"
same,c (corn) effect on crop grade,[5],"4 (weed kill ratio 70% or more, less than 90%)"
same,C (oval-leafed pondweed) weedkilling efficacy grade,[6],"5 (weed kill ratio 90% or more, (practically complete withering))"
same,a (transplanted rice) effect on crop grade,[7],0 (weed kill ratio 5% or less (practically no effect))
same,H (black-grass) weedkilling efficacy grade,[8],"5 (weed kill ratio 90% or more, (practically complete withering))"
same,E (green foxtail) weedkilling efficacy grade,[9],"5 (weed kill ratio 90% or more, (practically complete withering))"
same,M (fig-leafed goosefoot) weedkilling efficacy grade,[10],"3 (weed kill ratio 40% or more, less than 70%)"
same,K (Indian mallow) weedkilling efficacy grade,[11],"5 (weed kill ratio 90% or more, (practically complete withering))"
same,P (birds-eye speedwell) weedkilling efficacy grade,[12],"4 (weed kill ratio 70% or more, less than 90%)"
same,K (Indian mallow) weedkilling efficacy grade,[13],"4 (weed kill ratio 70% or more, less than 90%)"
same,d (soybean) effect on crop grade,[14],"4 (weed kill ratio 70% or more, less than 90%)"
same,f (beet) effect on crop grade,[15],"4 (weed kill ratio 70% or more, less than 90%)"
same,O (catchweed) weedkilling efficacy grade,[16],"4 (weed kill ratio 70% or more, less than 90%)"
same,A (barnyard grass) weedkilling efficacy grade,[17],"4 (weed kill ratio 70% or more, less than 90%)"
same,N (chickweed) weedkilling efficacy grade,[18],"4 (weed kill ratio 70% or more, less than 90%)"
same,L (redroot pigweed) weedkilling efficacy grade,[19],"5 (weed kill ratio 90% or more, (practically complete withering))"
same,e (wheat) effect on crop grade,[20],"4 (weed kill ratio 70% or more, less than 90%)"
same,D (crabgrass) weedkilling efficacy grade,[21],"5 (weed kill ratio 90% or more, (practically complete withering))"
same,H (black-grass) weedkilling efficacy grade,[22],"5 (weed kill ratio 90% or more, (practically complete withering))"
same,L (redroot pigweed) weedkilling efficacy grade,[23],"5 (weed kill ratio 90% or more, (practically complete withering))"
same,C (oval-leafed pondweed) weedkilling efficacy grade,[24],"5 (weed kill ratio 90% or more, (practically complete withering))"
same,D (crabgrass) weedkilling efficacy grade,[25],"5 (weed kill ratio 90% or more, (practically complete withering))"
same,A (barnyard grass) weedkilling efficacy grade,[26],"5 (weed kill ratio 90% or more, (practically complete withering))"
same,c (corn) effect on crop grade,[27],0 (weed kill ratio 5% or less (practically no effect))
same,b (directly sown rice) effect on crop grade,[28],"4 (weed kill ratio 70% or more, less than 90%)"
same,I (Italian ryegrass) weedkilling efficacy grade,[29],"5 (weed kill ratio 90% or more, (practically complete withering))"
same,b (directly sown rice) effect on crop grade,[30],"5 (weed kill ratio 90% or more, (practically complete withering))"
same,B (bulrush) weedkilling efficacy grade,[31],"5 (weed kill ratio 90% or more, (practically complete withering))"
same,B (bulrush) weedkilling efficacy grade,[32],"5 (weed kill ratio 90% or more, (practically complete withering))"
same,N (chickweed) weedkilling efficacy grade,[33],"5 (weed kill ratio 90% or more, (practically complete withering))"
same,d (soybean) effect on crop grade,[34],0 (weed kill ratio 5% or less (practically no effect))
same,I (Italian ryegrass) weedkilling efficacy grade,[35],"4 (weed kill ratio 70% or more, less than 90%)"

# Reference: patent US9738634B2, “Heterocyclic amide compound and herbicide” (SYNGENTA PARTICIPATIONS AG, priority 2013, dated 2017)
